Article PMC10326281, “Insights into the mechanisms governing P01 scorpion toxin effect against U87 glioblastoma cells oncogenesis” (Frontiers in Pharmacology, 2023)
Values after ≈ are worked out from the molar mass of the structure shown. Where a SMILES comes first, the peptide text is derived from it. Bridges are numbered along the chain shown (N, C = ends).

Legend:
[1] = system: LS174 colon adenocarcinoma cells; test: Cell proliferation test (crystal violet), LS174; assay type: cell-based, human; conditions: 2–10 μg/mL, 72 h, n = 3
From the text: (§1) The ATCC (American Type Culture Collection, Rockville, MD, United States) cancer cell lines U87 (glioblastoma), MDA-MB231 (breast cancer) and LS174 (colon adenocarcinoma) were routinely cultured in DMEM supplemented with 10% fœtal bovine serum (FBS), 1% l-glutamine and 100 IU/mL penicillin/streptomycin. […] Rat SK2 cDNA cloned into pJA5 plasmid was a gift from Dr. Skolnik (university Langone Medical center, New York). Human SK3 cDNA cloned into Pipru vector was a king gift from Pr. Soriani (Université Côte d’Azur, CNRS, Inserm, Nice, France).
(§2) The effect of the P01 peptide on cell proliferation was studied. The human cell lines U87, MDA-MB231 or LS174 (5,000 cells per well) were treated with 2; 5 and 10 μg/mL of P01 peptide. The plates were placed at 37°C for 72 h. Cellular proliferation was quantified at 560 nm by a spectrophotometer (Thermo-Multiskan EX, Shanghai, China) after treatment with 1% glutaraldehyde and staining with 0.1% crystal violet.
(§3) Every 24 h, a series of wells was washed with PBS, the cells were fixed with 1% glutaraldehyde, and preserved in PBS to follow the kinetics of proliferation. After 72 h, the cells were stained with crystal violet 0.1% and quantified by measuring the absorbance at 560 nm using a spectrophotometer (Thermo-Multiskan EX, Shanghai, China).

U87 glioblastoma cells [2] = test: Cell viability (MTT), U87; assay type: cell-based, human; conditions: 25–200 μg/mL, 24 h, 10,000 cells per well, n = 3
From the text: as §1
(§4) The human cell lines U87, MDA-MB231, or LS174 (10,000 cells per well) were treated with P01 peptide at different concentrations (25; 50; 100 and 200 μg/mL). After 24 h, the wells were washed with phosphate-buffered saline (PBS) and then the 3-(4,5-dimethylthiazol-2-yl)-2,5-diphenyltetrazolium bromide (MTT) (0.5 mg/mL) was added to the cells as previously described ([Kouba et al., 2020]). The crystals formed after the reduction of MTT by mitochondrial dehydrogenases were dissolved with dimethylsulfoxyde (DMSO). The quantification of live cells was achieved by measuring absorbance at 560 nm using a spectrophotometer (Thermo-Multiskan EX, Shanghai, China).

[3] = system: MDA-MB231 breast cancer cells; test: Cell proliferation test (crystal violet), MDA-MB231; assay type: cell-based, human; conditions: 2–10 μg/mL, 72 h, n = 3
From the text: as §1, §2, §3

α1β1 integrin = test: U87 cell adhesion in presence of anti-integrin antibodies, α1β1; assay type: cell-based, human; conditions: 50 μg/mL P01, 30 min pre-incubation, 2 h at 37°C, anti-α1β1 (1/200), n = 3
Protocol: (§5) To study the implication of integrins in the P01 peptide activity, adhesion assays using anti-integrin blocking antibodies: anti- α1β1 (1/200), anti- αvβ3 (1/200), anti- α5 (1/200) and anti- β3 (1/200) were performed as described above, except that cells were pretreated with the active peptide P01 at 50 μg/mL.

[4] = system: apamin-sensitive receptor (SKCa channels); conditions: selective blocker of SKCa channels displaced; previously reported, ref Zerrouk et al., 1996; cited from earlier work
From the text: Our team has initiated the fractionation of Aa scorpion venom, in order to identify scorpion peptides targeting potassium channels involved in the oncological process. Thus, we succeeded to isolate one peptide well represented in this venom. Based on its N-terminal sequence and its mass fingerprint this peptide corresponded to the P01 toxin, previously described by ([Zerrouk et al., 1996]).

U87 glioblastoma cells [5] = test: Cell migration assay (modified Boyden chamber), U87; assay type: cell-based, human
From the text: as §1
Cell migration assay was performed using modified Boyden chamber (NeuroProbe Inc., Bethesda, MD, United States) as previously described ([Sarray et al., 2007]). Membranes were coated with fibrinogen (Fg) (50 μg/mL), fibronectin (Fn) (10 μg/mL), collagen type I (Coll-I) (50 μg/mL) for U87, MDA-MB231 and LS174 cells respectively, for 2 h at 37°C. Cells were harvested as a single cell suspension (10^6 cells/mL) and treated with P01 at 50 μg/mL. Then added to pre-coated membranes and allowed to migrate for 5 h at 37°C in Boyden chamber. Cells were fixed on the underside of the membrane, stained by 0.1% crystal violet and migration was quantified by measuring the absorbance at 560 nm using a spectrophotometer (Thermo-Multiskan EX, Shanghai, China).

[6] = system: MDA-MB231 breast cancer cells; test: Cell viability (MTT), MDA-MB231; assay type: cell-based, human; conditions: 25–200 μg/mL, 24 h, 10,000 cells per well, n = 3
From the text: as §1, §4

β3 integrin = test: U87 cell adhesion in presence of anti-integrin antibodies, β3; assay type: cell-based, human; conditions: 50 μg/mL P01, 30 min pre-incubation, 2 h at 37°C, anti-β3 (1/200), n = 3
Protocol: as §5

[7] = system: MDA-MB231 breast cancer cells; test: Cell adhesion assay, MDA-MB231; assay type: cell-based, human; conditions: data not shown
From the text: as §1
Adhesion assays were performed as previously described by ([Sarray et al., 2007]). Glioblastoma U87 cells in suspension (10^6 cells/mL) were treated with 50 μg/mL of P01 and deposited on wells coated with purified extracellular matrix (ECM): Fg at 50 μg/mL; Fn at 10 μg/mL; Coll-I at 50 μg/mL; laminin (Lam) at 15 μg/mL or poly-L-lysine (PL) at 20 μg/mL for U87. MDA-MB231 and LS174 cells were also used in their adequate ECM: Fg and Coll-I respectively. They were incubated to adhere to the substrate for 2 h or 24 h at 37°C. After washing, attached cells were fixed, stained by 0.1% crystal violet, lysed with 1% SDS and quantified by measuring absorbance at 560 nm. The specific adhesion is obtained by subtracting the absorbance obtained in the absence of adhesion substrate (no specific control). […]

U87 glioblastoma cells [8] = test: Cell proliferation test (crystal violet), U87; assay type: cell-based, human
From the text: as §1, §2, §3

CC[C@H](C)[C@H](NC(=O)[C@@H]1CCCN1C(=O)[C@H](CCC(=O)O)NC(=O)[C@@H]1CSSC[C@@H]2NC(=O)[C@H](Cc3c[nH]cn3)NC(=O)[C@H](CCC(=O)O)NC(=O)[C@@H]3CCCN3C(=O)[C@@H]3CSSC[C@H](NC(=O)[C@H](CCCCN)NC(=O)[C@H](CC(=O)O)NC(=O)[C@H](CC(N)=O)NC(=O)[C@H](CC(=O)O)NC(=O)[C@H](CSSC[C@H](NC(=O)[C@H](CO)NC(=O)[C@@H](N)C(C)C)C(=O)N[C@@H](CCC(=O)O)C(=O)N[C@@H](CC(=O)O)C(=O)N3)NC(=O)[C@H](CCCCN)NC(=O)[C@H](C)NC(=O)[C@H](CCC(N)=O)NC(=O)[C@H](C)NC(=O)[C@H](CCCCN)NC(=O)[C@H](CCC(N)=O)NC(=O)[C@H]([C@@H](C)O)NC(=O)[C@H](CO)NC2=O)C(=O)N[C@@H](C(C)C)C(=O)N1)C(=O)O [P01] (H-VSCEDCPEHCSTQKAQAKCDNDKCVCEPI-OH; disulfide 3-19, 6-24, 10-26 (inferred); N-terminus and C-terminus assumed)
effect on cell proliferation [1]: no effect
cytotoxic effect (cell viability) (U87 glioblastoma cells [2]): did not have a cytotoxic effect
effect on cell proliferation [3]: no effect
effect on adhesive function of α1β1 (α1β1 integrin): reduced the adhesive function
inhibition of 125I-apamin binding [4]: inhibit the binding of ^125I-apamin
inhibition of migration (U87 glioblastoma cells [5]; 50 μg/mL, 5 h at 37°C, fibrinogen 50 μg/mL coating, n = 3): 48%
IC50 (migration) (U87 glioblastoma cells [5]; Boyden chamber, 5 h): 50 µg/mL (≈ 15.7 µM)
cytotoxic effect (cell viability) [6]: did not have a cytotoxic effect
effect on cell adhesion through β3 (β3 integrin): not able to alter cell adhesion
effect on adhesion [7]: not affected
IC50 (viability/proliferation) (U87 glioblastoma cells [8]; 72 h of incubation): 10 µg/mL (≈ 3.15 µM)
kinetic effect on proliferation (U87 glioblastoma cells [8]; P01 at 10 μg/mL, time course to 72 h, n = 3): inhibition appeared after 48 h of treatment
